ChEMBL document CHEMBL1201862, “PubChem BioAssay data set” (2004)
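1) Cells in 96-well plates. 2) Compound, 48 h, 5 concentrations. 3) Linear interpolation between surrounding doses. 4) Unreached endpoint = highest concentration. GI50: concentration for 50% inhibition of growth.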 Active and inactive are the calls of the source. Rule as the data show it: active = GI50 up to about 1.1 µM and inactive = higher.

Legend:
Assay in all cases: growth of human tumour cells (NCI), 48 h
HCT-15 = tested on: HCT-15
NCI-H460 = tested on: NCI-H460
HOP-62 = tested on: HOP-62
EKVX = tested on: EKVX
OVCAR-3 = tested on: OVCAR-3
HCC 2998 = tested on: HCC 2998
UACC-257 = tested on: UACC-257
NCI-H226 = tested on: NCI-H226
MDA-MB-435 = tested on: MDA-MB-435
SK-OV-3 = tested on: SK-OV-3
SK-MEL-2 = tested on: SK-MEL-2
OVCAR-8 = tested on: OVCAR-8
BT-549 = tested on: BT-549
MDA-N = tested on: MDA-N
LOX IMVI = tested on: LOX IMVI
UACC-62 = tested on: UACC-62
RPMI-8226 = tested on: RPMI-8226
A549 = tested on: A549
T47D = tested on: T47D
OVCAR-4 = tested on: OVCAR-4

Structure (SMILES) | GI50 (HCT-15) [µM] | GI50 (NCI-H460) | GI50 (HOP-62) | GI50 (EKVX) | GI50 (OVCAR-3) | GI50 (HCC 2998) | GI50 (UACC-257) | GI50 (NCI-H226) | GI50 (MDA-MB-435) | GI50 (SK-OV-3) | GI50 (SK-MEL-2) | GI50 (OVCAR-8) | GI50 (BT-549) | GI50 (MDA-N) | GI50 (LOX IMVI) | GI50 (UACC-62) | GI50 (RPMI-8226) | GI50 (A549) | GI50 (T47D) | GI50 (OVCAR-4)
CC(C)(C)OC(=O)NCCCCC1NC(=O)[C@@H]2Cc3c([nH]c4ccccc34)C(c3ccccc3)N2C1=O (some centres undefined) | 31.1 | 30.4 µM (inactive) | 30.3 µM (inactive) | 44.9 µM (inactive) | 19 µM (inactive) | 12.8 µM (inactive) | 35.6 µM (inactive) | 63.7 µM (inactive) | 34.2 µM (inactive) | 50.4 µM (inactive) | 24.7 µM (inactive) | 36.2 µM (inactive) | 21.9 µM (inactive) | 29.4 µM (inactive) | 19.9 µM (inactive) | 23.4 µM (inactive) | 27.7 µM (inactive) | 38.4 µM (inactive) | 18 µM (inactive) | 48.5 µM (inactive)
Oc1ccccc1CNCc1nc2ccccc2[nH]1 | 3.01 | – | 69 µM (inactive) | 36.1 µM (inactive) | 33.7 µM (inactive) | > 100 µM (inactive) | > 100 µM (inactive) | 20.9 µM (inactive) | > 100 µM (inactive) | – | > 100 µM (inactive) | 29 µM (inactive) | 75.7 µM (inactive) | > 100 µM (inactive) | 57 µM (inactive) | 78.7 µM (inactive) | 17.7 µM (inactive) | > 100 µM (inactive) | > 100 µM (inactive) | > 100 µM (inactive)
Cc1cc(C)c(C#N)c(SC(=S)NC(=O)c2ccccc2)n1 | > 100 | > 100 µM (inactive) | > 100 µM (inactive) | > 100 µM (inactive) | – | > 100 µM (inactive) | > 100 µM (inactive) | > 100 µM (inactive) | > 100 µM (inactive) | – | > 100 µM (inactive) | – | > 100 µM (inactive) | > 100 µM (inactive) | – | > 100 µM (inactive) | > 100 µM (inactive) | > 100 µM (inactive) | > 100 µM (inactive) | > 100 µM (inactive)
Oc1nc(-c2cccc(F)c2)nc2ccccc12 | > 100 | 36.1 µM (inactive) | 22.5 µM (inactive) | > 67.3 µM (inactive) | > 54.2 µM (inactive) | 35.1 µM (inactive) | > 91.6 µM (inactive) | > 100 µM (inactive) | > 86.1 µM (inactive) | 28.7 µM (inactive) | 41 µM (inactive) | 29.8 µM (inactive) | > 46.9 µM (inactive) | > 62.8 µM (inactive) | > 100 µM (inactive) | 23.1 µM (inactive) | – | 51.6 µM (inactive) | > 100 µM (inactive) | 25 µM (inactive)
O=C1NC(N2CCCC(CO)C2)=N/C1=C\c1ccccc1 (centres undefined) | > 100 | – | > 100 µM (inactive) | > 100 µM (inactive) | > 100 µM (inactive) | > 100 µM (inactive) | > 100 µM (inactive) | > 100 µM (inactive) | > 100 µM (inactive) | > 100 µM (inactive) | > 100 µM (inactive) | > 100 µM (inactive) | > 100 µM (inactive) | > 100 µM (inactive) | > 100 µM (inactive) | > 100 µM (inactive) | > 100 µM (inactive) | > 100 µM (inactive) | > 100 µM (inactive) | > 100 µM (inactive)
CC1(C)CC(=O)C(CC(C(=O)C(=O)Nc2cc(C(F)(F)F)ccc2Cl)C(=O)c2ccco2)C(=O)C1 (centres undefined) | > 100 | > 100 µM (inactive) | – | > 100 µM (inactive) | > 100 µM (inactive) | > 100 µM (inactive) | > 100 µM (inactive) | > 100 µM (inactive) | > 100 µM (inactive) | > 100 µM (inactive) | > 100 µM (inactive) | > 100 µM (inactive) | > 100 µM (inactive) | > 100 µM (inactive) | > 100 µM (inactive) | > 100 µM (inactive) | > 100 µM (inactive) | > 100 µM (inactive) | > 100 µM (inactive) | > 100 µM (inactive)
CC1CC[C@@]2(OC1)O[C@H]1[C@H](O)[C@H]3[C@@H]4CC[C@H]5C[C@@H](OC6OC(CO)C(OC7OC(CO)C(O)C(OC8OCC(O)C(O)C8O)C7OC7OC(CO)C(O)C(O)C7OC7OC(CO)C(O)C(O)C7O)C(O)C6O)[C@H](O)C[C@]5(C)[C@H]4CC[C@]3(C)[C@H]1[C@@H]2C (some centres undefined) | > 10 | > 10 µM (inactive) | > 10 µM (inactive) | > 10 µM (inactive) | 2.85 µM (inactive) | > 10 µM (inactive) | > 10 µM (inactive) | > 10 µM (inactive) | > 10 µM (inactive) | – | > 10 µM (inactive) | > 10 µM (inactive) | > 10 µM (inactive) | > 10 µM (inactive) | > 10 µM (inactive) | > 10 µM (inactive) | 2.15 µM (inactive) | 3.47 µM (inactive) | > 10 µM (inactive) | 7.08 µM (inactive)
CC1(C)C2CCC(=O)C1C(OCc1ccccc1)C2 (centres undefined) | > 100 | > 100 µM (inactive) | > 100 µM (inactive) | – | > 100 µM (inactive) | > 100 µM (inactive) | 85.7 µM (inactive) | > 100 µM (inactive) | > 100 µM (inactive) | > 100 µM (inactive) | > 100 µM (inactive) | > 100 µM (inactive) | 94 µM (inactive) | > 100 µM (inactive) | > 100 µM (inactive) | > 100 µM (inactive) | > 100 µM (inactive) | 21.9 µM (inactive) | > 100 µM (inactive) | > 100 µM (inactive)
